biological target: recombinant human baculovirus-expressed cMET (Homo sapiens (Human), UniProt P08581); assay: C-MET Kinase Assay (HTRF KinEASE); format: biochemical; conditions: average of two or more determinations; read-out: c-MET IC50
Procedure: The cMET kinase assay was performed in 384-well Fluotrac™ 200 HiBase microplates using the HTRF KinEASE™ assay described above for AXL except that the assay volume was reduced to half. Enzyme concentration was 8 ng/mL of recombinant human baculovirus-expressed cMET while the substrate concentrations were 0.1 μM and 0.02 μM for the biotinylated peptide and ATP, respectively. Instead of the Multidrop Combi, the BioRAPTR® FRD microfluidic workstation (Beckman Coulter, Brea, Calif.) was utilized for reagent additions.
Inhibition curves for compounds were generated by plotting percent control activity versus log 10 of the concentration of compound. IC50 values were calculated by nonlinear regression using the sigmoidal dose-response (variable slope) equation in GraphPad Prism as follows: y=bottom+(top−bottom)/(1+10(log IC50−x)*Hill Slope) where y is the % kinase activity at a given concentration of compound, x is the logarithm of the concentration of compound, bottom is the % of control kinase activity at the highest compound concentration tested, and top is the % of control kinase activity at the lowest compound concentration examined. The values for bottom and top were fixed at 0 and 100, respectively.

Structure (SMILES) | IC50 [µM]
CCn1cc(C(=O)Nc2ccc(Oc3ccnc4cc(OCCCN5CCOCC5)c(OC)cc34)c(F)c2)c(=O)n(-c2ccc(F)cc2)c1=O [Example 43, 1-Ethyl-3-(4-fluorophenyl)-2,4-dioxo-1,2,3,4-tetrahydropyrimidine-5-carboxylic acid {3-fluoro-4-[6-methoxy-7-(3-morpholin-4-yl-propoxy)quinolin-4-yloxy]phenyl}-amide] | 0.01 to 0.1
CCn1cc(C(=O)Nc2ccc(Oc3ccnc4cc(OC)c(OC)cc34)c(F)c2)c(=O)n(C2CCCCC2)c1=O [Example 25, 3-Cyclohexyl-1-ethyl-2,4-dioxo-1,2,3,4-tetrahydropyrimidine-5-carboxylic acid [4-(6,7-dimethoxyquinolin-4-yloxy)-3-fluorophenyl]-amide] | 0.101 to 1
COc1cc2nccc(Oc3ccc(NC(=O)c4cn(CCCc5ccccc5)c(=O)n(-c5ccc(F)cc5)c4=O)cc3F)c2cc1OC [Example 81, 3-(4-Fluoro-phenyl)-2,4-dioxo-1-(3-phenyl-propyl)-1,2,3,4-tetrahydro-pyrimidine-5-carboxylic acid [4-(6,7-dimethoxy-quinolin-4-yloxy)-3-fluoro-phenyl]-amide] | 0.01 to 0.1
COc1cc2nccc(Nc3ccc(NC(=O)c4nn(C(C)C)c(=O)n(-c5ccc(F)cc5)c4=O)cc3)c2cc1OC [Example 136, 4-(4-Fluoro-phenyl)-2-isopropyl-3,5-dioxo-2,3,4,5-tetrahydro-[1,2,4]triazine-6-carboxylic acid [4-(6,7-dimethoxy-quinolin-4-ylamino)-phenyl]-amide] | 0.101 to 1
COc1cc2nccc(Oc3ccc(NC(=O)c4cn(C(C)C)c(=O)n(-c5ccc(F)cc5)c4=O)cc3C3CC3)c2cc1OC [Example 60, 3-(4-Fluoro-phenyl)-1-isopropyl-2,4-dioxo-1,2,3,4-tetrahydro-pyrimidine-5-carboxylic acid [3-cyclopropyl-4-(6,7-dimethoxy-quinolin-4-yloxy)-phenyl]-amide] | 0.101 to 1
COc1cc(Oc2ccnc3cc(OC)c(OC)cc23)ccc1NC(=O)c1nn(C(C)C)c(=O)n(-c2ccc(F)cc2)c1=O [Example 166, 4-(4-Fluoro-phenyl)-2-isopropyl-3,5-dioxo-2,3,4,5-tetrahydro-1,2,4-triazine-6-carboxylic acid [4-(6,7-dimethoxy-quinolin-4-yloxy)-2-methoxy-phenyl]-amide] | 0.101 to 1
COc1cc2nccc(Oc3ccc(NC(=O)c4cn(CC5CC5)c(=O)n(CC5CC5)c4=O)cc3F)c2cc1OC [Example 95, 1,3-Bis-cyclopropylmethyl-2,4-dioxo-1,2,3,4-tetrahydro-pyrimidine-5-carboxylic acid [4-(6,7-dimethoxy-quinolin-4-yloxy)-3-fluoro-phenyl]-amide] | 0.01 to 0.1
CCn1nc(C(=O)Nc2ccc(Oc3ccnc4cc(OC)c(OC)cc34)cc2OC)c(=O)n(-c2ccc(F)cc2)c1=O [Example 170, 2-Ethyl-4-(4-fluoro-phenyl)-3,5-dioxo-2,3,4,5-tetrahydro-1,2,4-triazine-6-carboxylic acid [4-(6,7-dimethoxy-quinolin-4-yloxy)-2-methoxy-phenyl]-amide] | 0.01 to 0.1
CCn1cc(C(=O)Nc2ccc(Oc3ccnc4cc(OC)c(OC)cc34)c(F)c2)c(=O)n(CC)c1=O [Example 93, 1,3-Diethyl-2,4-dioxo-1,2,3,4-tetrahydro-pyrimidine-5-carboxylic acid [4-(6,7-dimethoxy-quinolin-4-yloxy)-3-fluoro-phenyl]-amide] | 0.01 to 0.1
CCC#CCn1c(=O)c(C(=O)Nc2ccc(Oc3ccnc4cc(OC)c(OC)cc34)c(F)c2)nn(C)c1=O [Example 117, 2-Methyl-3,5-dioxo-4-pent-2-ynyl-2,3,4,5-tetrahydro-[1,2,4]triazine-6-carboxylic acid [4-(6,7-dimethoxy-uinolin-4-yloxy)-3-fluoro-phenyl]-amide] | 0.101 to 1
CCn1cc(C(=O)Nc2ccc(Oc3ccnc4cc(OC)c(OC)cc34)c(C)c2C)c(=O)n(-c2ccc(F)cc2)c1=O [Example 157, 1-Ethyl-3-(4-fluoro-phenyl)-2,4-dioxo-1,2,3,4-tetrahydro-pyrimidine-5-carboxylic acid [4-(6,7-dimethoxy-quinolin-4-yloxy)-2,3-dimethyl-phenyl]-amide] | 0.101 to 1
COc1cc2nccc(Oc3ccc(NC(=O)c4cn(CCCCO)c(=O)n(-c5ccc(F)cc5)c4=O)cc3F)c2cc1OC [Example 55, 3-(4-Fluorophenyl)-1-(4-hydroxybutyl)-2,4-dioxo-1,2,3,4-tetrahydropyrimidine-5-carboxylic acid [4-(6,7-dimethoxyquinolin-4-yloxy)-3-fluorophenyl]-amide] | 0.01 to 0.1
COc1cc2nccc(Oc3ccc(NC(=O)c4cn(CCOC(C)C)c(=O)n(-c5ccc(F)cc5)c4=O)cc3F)c2cc1OC [Example 12, 3-(4-Fluorophenyl)-1-(2-isopropoxyethyl)-2,4-dioxo-1,2,3,4-tetrahydropyrimidine-5-carboxylic acid [4-(6,7-dimethoxyquinolin-4-yloxy)-3-fluorophenyl]-amide] | 0.01 to 0.1
COc1cc2nccc(Oc3ccc(NC(=O)c4cn(C(C)C)c(=O)n(-c5ccc(F)cc5)c4=O)cc3C(F)(F)F)c2cc1OC [Example 160, 3-(4-Fluoro-phenyl)-1-isopropyl-2,4-dioxo-1,2,3,4-tetrahydro-pyrimidine-5-carboxylic acid [4-(6,7-dimethoxy-quinolin-4-yloxy)-3-trifluoromethyl-phenyl]-amide] | 0.101 to 1
CCn1nc(C(=O)Nc2ccc(Oc3ccnc4cc(OC)c(OC)cc34)c(C(F)(F)F)c2)c(=O)n(-c2ccc(F)cc2)c1=O [Example 169, 2-Ethyl-4-(4-fluoro-phenyl)-3,5-dioxo-2,3,4,5-tetrahydro-1,2,4-triazine-6-carboxylic acid [4-(6,7-dimethoxy-quinolin-4-yloxy)-3-trifluoromethyl-phenyl]-amide] | < 0.01
COc1cc2nccc(Oc3c(F)cc(NC(=O)c4c[nH]c(=O)n(-c5ccc(F)cc5)c4=O)cc3F)c2cc1OC [Example 89, 3-(4-Fluoro-phenyl)-2,4-dioxo-1,2,3,4-tetrahydropyrimidine-5-carboxylic acid [4-(6,7-dimethoxy-quinolin-4-yloxy)-3,5-difluoro-phenyl]-amide] | 0.101 to 1
COc1cc2ncnc(Oc3ccc(NC(=O)c4cn(C(C)C)c(=O)n(-c5ccc(F)cc5)c4=O)cc3)c2cc1OC [Example 141, 3-(4-Fluoro-phenyl)-1-isopropyl-2,4-dioxo-1,2,3,4-tetrahydro-pyrimidine-5-carboxylic acid [4-(6,7-dimethoxy-quinazolin-4-yloxy)-phenyl]-amide] | 0.01 to 0.1
C=CCn1c(=O)c(C(=O)Nc2ccc(Oc3ccnc4cc(OC)c(OC)cc34)c(F)c2)nn(C)c1=O [Example 124, 4-Allyl-2-methyl-3,5-dioxo-2,3,4,5-tetrahydro-[1,2,4]triazine-6-carboxylic acid [4-(6,7-dimethoxy-quinolin-4-yloxy)-3-fluoro-phenyl]-amide] | 0.01 to 0.1
CCn1cc(C(=O)N(C)c2ccc(Oc3ccnc4cc(OC)c(OC)cc34)c(F)c2)c(=O)n(-c2ccc(F)cc2)c1=O [Example 48, 1-Ethyl-3-(4-fluorophenyl)-2,4-dioxo-1,2,3,4-tetrahydropyrimidine-5-carboxylic acid [4-(6,7-dimethoxyquinolin-4-yloxy)-3-fluoro-phenyl]-methyl-amide] | 0.101 to 1
COc1cc2nccc(Oc3ccc(NC(=O)c4cn(CCC5CCCCC5)c(=O)n(-c5ccc(F)cc5)c4=O)cc3F)c2cc1OC [Example 80, 1-(2-Cyclohexyl-ethyl)-3-(4-fluoro-phenyl)-2,4-dioxo-1,2,3,4-tetrahydro-pyrimidine-5-carboxylic acid [4-(6,7-dimethoxy-quinolin-4-yloxy)-3-fluoro-phenyl]-amide] | 0.101 to 1
CCn1cc(C(=O)Nc2ccc(Oc3ccnc4cc(OC)c(OC)cc34)c(C)c2)c(=O)n(-c2ccc(F)cc2)c1=O [Example 148, 1-Ethyl-3-(4-fluoro-phenyl)-2,4-dioxo-1,2,3,4-tetrahydro-pyrimidine-5-carboxylic acid [4-(6,7-dimethoxy-quinolin-4-yloxy)-3-methyl-phenyl]-amide] | 0.01 to 0.1
COc1cc2nccc(Oc3ccc(NC(=O)c4cn(C(C)C)c(=O)n(-c5ccc(F)cc5)c4=O)c(C)c3C)c2cc1OC [Example 158, 3-(4-Fluoro-phenyl)-1-isopropyl-2,4-dioxo-1,2,3,4-tetrahydro-pyrimidine-5-carboxylic acid [4-(6,7-dimethoxy-quinolin-4-yloxy)-2,3-dimethyl-phenyl]-amide] | 0.101 to 1
C=CCn1cc(C(=O)Nc2ccc(Oc3ccnc4cc(OC)c(OC)cc34)c(F)c2)c(=O)n(CC=C)c1=O [Example 96, 1,3-Diallyl-2,4-dioxo-1,2,3,4-tetrahydro-pyrimidine-5-carboxylic acid [4-(6,7-dimethoxy-quinolin-4-yloxy)-3-fluoro-phenyl]-amide] | 0.01 to 0.1
CCOc1cc2nccc(Oc3ccc(NC(=O)c4cn(C(C)C)c(=O)n(-c5ccc(F)cc5)c4=O)cc3F)c2cc1OCC [Example 37, 3-(4-Fluorophenyl)-1-isopropyl-2,4-dioxo-1,2,3,4-tetrahydropyrimidine-5-carboxylic acid [4-(6,7-diethoxyquinolin-4-yloxy)-3-fluoro-phenyl]-amide] | 0.101 to 1
C#CCn1cc(C(=O)Nc2ccc(Oc3ccnc4cc(OC)c(OC)cc34)c(F)c2)c(=O)n(CC#C)c1=O [Example 98, 2,4-Dioxo-1,3-di-prop-2-ynyl-1,2,3,4-tetrahydro-pyrimidine-5-carboxylic acid [4-(6,7-dimethoxy-quinolin-4-yloxy)-3-fluoro-phenyl]-amide] | 0.01 to 0.1

Reference: patent US9745283B2, “Uracil derivatives as AXL and c-MET kinase inhibitors” (priority 2011, dated 2017)
